For 67 compounds, IC50 results are on record in US20170066759A1, “AROMATIC 5-MEMBERED HETEROCYCLIC DERIVATIVE HAVING TRPV4-INHIBITING ACTIVITY” (Shionogi & Co., Ltd., priority 2012, published 2017).

Where only a bound is given, the exact number is not on record here.

T1 sequence (Q9HBA0 whole entry): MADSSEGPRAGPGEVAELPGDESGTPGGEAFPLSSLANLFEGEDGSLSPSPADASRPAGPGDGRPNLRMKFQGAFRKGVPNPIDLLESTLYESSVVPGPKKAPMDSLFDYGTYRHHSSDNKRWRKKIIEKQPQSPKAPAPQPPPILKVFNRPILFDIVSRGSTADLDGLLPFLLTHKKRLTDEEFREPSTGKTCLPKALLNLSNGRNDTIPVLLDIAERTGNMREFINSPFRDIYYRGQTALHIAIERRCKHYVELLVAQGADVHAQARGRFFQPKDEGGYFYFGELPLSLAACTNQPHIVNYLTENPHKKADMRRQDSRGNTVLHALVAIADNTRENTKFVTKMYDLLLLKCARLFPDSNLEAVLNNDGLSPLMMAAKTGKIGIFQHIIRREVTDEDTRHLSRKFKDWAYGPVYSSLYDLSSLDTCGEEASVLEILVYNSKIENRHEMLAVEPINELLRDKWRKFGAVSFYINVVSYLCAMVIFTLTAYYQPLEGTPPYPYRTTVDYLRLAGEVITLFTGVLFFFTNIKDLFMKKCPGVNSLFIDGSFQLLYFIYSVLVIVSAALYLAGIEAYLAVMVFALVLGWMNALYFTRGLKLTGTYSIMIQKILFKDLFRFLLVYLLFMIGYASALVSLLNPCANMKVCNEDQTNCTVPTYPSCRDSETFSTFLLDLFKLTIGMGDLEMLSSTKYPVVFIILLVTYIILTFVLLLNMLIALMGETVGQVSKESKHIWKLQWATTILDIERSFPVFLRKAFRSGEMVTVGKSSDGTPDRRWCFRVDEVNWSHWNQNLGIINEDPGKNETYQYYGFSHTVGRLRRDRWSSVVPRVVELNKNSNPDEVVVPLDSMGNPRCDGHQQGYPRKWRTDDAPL

The first test addresses T1, human TRPV4 (hTRPV4/CHO cells) (Homo sapiens, UniProt Q9HBA0).
T1 construct: expressed in transfected cells; host or cells: CHO-K1
The test is described as follows: Test Example 1: TRPV4 inhibitory activity (IC50 value), 4α-PDD stimulation, Fluo4 calcium fluorescence (FLIPR TETRA). It counts as cell-based. As to conditions: 1 μmol/L 4α-PDD, Fluo4-AM, read-out: TRPV4 inhibitory activity (IC50 value).
In the case of `CC(=O)NCc1nc(CO)sc1-c1csc(NC(=O)Cc2ccc(S(=O)(=O)C(F)(F)F)cc2)n1` [Compound I-382], the IC50 stood at 22 nM.

Still in this test, the particulars now being: Test Example 1, 4α-PDD stimulation, read-out: Test 1 IC50.
Take `Cc1nc(C)c(-c2csc(NC(=O)[C@H]3C[C@H](Oc4ccc(C(F)(F)F)cc4)C3)n2)s1` [Compound I-365]: the IC50 is less than 100 nM. Still for that read-out and setting: the figure for `O=C(Cc1ccc(S(=O)(=O)C(F)(F)F)cc1)Nc1nc(-c2sc(CO)nc2CCO)cs1` [Compound I-366] is less than 100 nM; for `Cc1nc(C)c(-c2csc(NC(=O)[C@H]3C[C@@H](N(C)Cc4ccc(C(F)(F)F)cc4)C3)n2)s1` [Compound I-367] it is less than 100 nM. Turning to `Cc1nc(C)c(-c2csc(NC(=O)[C@H]3C[C@H](N(C)Cc4ccc(C(F)(F)F)cc4)C3)n2)s1` [Compound I-368], the IC50 is less than 100 nM. For `Cc1nc(CO)sc1-c1csc(NC(=O)C2CN(c3ccc(C(F)(F)F)cc3)C2)n1` [Compound I-369], the IC50 was less than 100 nM. Regarding `NC(=O)OCCc1nc(CO)sc1-c1csc(NC(=O)Cc2ccc(S(=O)(=O)C(F)(F)F)cc2)n1` [Compound I-370], the half-maximal inhibitory concentration (IC50) was less than 100 nM. Turning to `O=C(Nc1nc(-c2sc(CO)nc2CO)cs1)C1CN(c2ccccc2)C1` [Compound I-371], the IC50 lay within 100 to 1000 nM. On the same count and under the same terms, for `O=C(Nc1nc(-c2sc(CO)nc2CO)cs1)C1CN(c2ccc(F)cc2)C1` [Compound I-372] the value was 100 to 1000 nM; for `NC(=O)OCc1nc(CO)sc1-c1csc(NC(=O)Cc2ccc(S(=O)(=O)C(F)(F)F)cc2)n1` [Compound I-373], less than 100 nM; for `Cc1nc(C)c(-c2csc(N(Cc3ccc(C(F)(F)F)cc3)C(=O)C3CN(O)C3)n2)s1` [Compound I-374], 1000 to 8000 nM.

`O=C(Cc1ccc(S(=O)(=O)C(F)(F)F)cc1)Nc1nc(-c2sc(CO)nc2CCN2CCOCC2)cs1` [Compound I-375]: the half-maximal inhibitory concentration (IC50) is less than 100 nM. On the same count and under the same terms, the figure for `O=C(Cc1ccc(S(=O)(=O)C(F)(F)F)cc1)Nc1nc(-c2sc(CO)nc2CC(=O)N2CCOCC2)cs1` [Compound I-376] is 1000 to 8000 nM. Still for that read-out and setting: for `O=C(Cc1ccc(S(=O)(=O)C(F)(F)F)cc1)Nc1nc(-c2sc(CO)nc2CCCN2CCOCC2)cs1` [Compound I-377] the value was less than 100 nM; for `Cc1nc(COC(N)=O)sc1-c1csc(NC(=O)Cc2ccc(S(=O)(=O)C(F)(F)F)cc2)n1` [Compound I-378], 100 to 1000 nM.

Regarding `Cc1nc(C)c(-c2csc(NC(=O)C3CCN(c4ncc(C(F)(F)F)cn4)CC3)n2)s1` [Compound I-379], the IC50 was less than 100 nM.

Turning to `Cc1nc(CO)oc1-c1csc(NC(=O)Cc2ccc(S(=O)(=O)C(F)(F)F)cc2)n1` [Compound I-380], the IC50 was in the range of 100 to 1000 nM.

For `NC(=O)NCc1nc(CO)sc1-c1csc(NC(=O)Cc2ccc(S(=O)(=O)C(F)(F)F)cc2)n1` [Compound I-381], the half-maximal inhibitory concentration (IC50) fell in the range of 100 to 1000 nM. As to `CC(=O)NCc1nc(CO)sc1-c1csc(NC(=O)Cc2ccc(S(=O)(=O)C(F)(F)F)cc2)n1` [Compound I-382], the IC50 is less than 100 nM. Still for that read-out and setting: for `O=C(CO)NCc1nc(CO)sc1-c1csc(NC(=O)Cc2ccc(S(=O)(=O)C(F)(F)F)cc2)n1` [Compound I-383] the value was 100 to 1000 nM; for `NS(=O)(=O)NCc1nc(CO)sc1-c1csc(NC(=O)Cc2ccc(S(=O)(=O)C(F)(F)F)cc2)n1` [Compound I-384], 100 to 1000 nM. On the same count and under the same terms, the figure for `O=C(Cc1ccc(S(=O)(=O)C(F)(F)F)cc1)Nc1nc(-c2sc(CO)nc2CN2CCOCC2)cs1` [Compound I-385] is 100 to 1000 nM; for `Cc1nc(C)c(-c2csc(NC(=O)OC3CN(c4ncc(C(F)(F)F)cn4)C3)n2)s1` [Compound I-386] it is 1000 to 8000 nM. With `Cc1nc(C)c(-c2csc(NC(=O)[C@H]3CCN(c4ncc(C(F)(F)F)cn4)C3)n2)s1` [Compound I-388], the IC50 was less than 100 nM. Still for that read-out and setting: the figure for `CNC(=O)NCc1nc(CO)sc1-c1csc(NC(=O)Cc2ccc(S(=O)(=O)C(F)(F)F)cc2)n1` [Compound I-389] is less than 100 nM. In the case of `CN(C)C(=O)NCc1nc(CO)sc1-c1csc(NC(=O)Cc2ccc(S(=O)(=O)C(F)(F)F)cc2)n1` [Compound I-390], the IC50 is less than 100 nM.

Consider `CN(Cc1nc(CO)sc1-c1csc(NC(=O)Cc2ccc(S(=O)(=O)C(F)(F)F)cc2)n1)C(N)=O` [Compound I-391], for which the IC50 lay in the range of 100 to 1000 nM. On the same count and under the same terms, for `Cc1nc(CC#N)sc1-c1csc(NC(=O)Cc2ccc(S(=O)(=O)C(F)(F)F)cc2)n1` [Compound I-392] the value was less than 100 nM; for `CC(=O)N(C)Cc1nc(CO)sc1-c1csc(NC(=O)Cc2ccc(S(=O)(=O)C(F)(F)F)cc2)n1` [Compound I-393], 100 to 1000 nM; for `Cc1nc(C)c(-c2csc(NC(=O)[C@@H]3CCN(c4ncc(C(F)(F)F)cn4)C3)n2)s1` [Compound I-394], less than 100 nM. In the case of `N#CCc1nc(CO)sc1-c1csc(NC(=O)C2CN(c3ncc(C(F)(F)F)cn3)C2)n1` [Compound I-395], the IC50 is less than 100 nM. The same measure, in the same setting: the figure for `Cc1nc(CN)sc1-c1csc(NC(=O)Cc2ccc(S(=O)(=O)C(F)(F)F)cc2)n1` [Compound I-396] is less than 100 nM; for `CC(=O)NCc1nc(C)c(-c2csc(NC(=O)Cc3ccc(S(=O)(=O)C(F)(F)F)cc3)n2)s1` [Compound I-397] it is 100 to 1000 nM; for `Cc1nc(CNC(N)=O)sc1-c1csc(NC(=O)Cc2ccc(S(=O)(=O)C(F)(F)F)cc2)n1` [Compound I-398] it is 1000 to 8000 nM. Same read-out and setting: the figure for `Cc1nc(CNS(C)(=O)=O)sc1-c1csc(NC(=O)Cc2ccc(S(=O)(=O)C(F)(F)F)cc2)n1` [Compound I-399] is 1000 to 8000 nM; for `COC(=O)NCc1nc(C)c(-c2csc(NC(=O)Cc3ccc(S(=O)(=O)C(F)(F)F)cc3)n2)s1` [Compound I-400] it is 100 to 1000 nM.

For `Cc1nc(C)c(-c2csc(NC(=O)CC3CN(c4ncc(C(F)(F)F)cn4)C3)n2)s1` [Compound I-401], the IC50 fell in the range of 100 to 1000 nM.

As to `Cc1nc(C#N)sc1-c1csc(NC(=O)Cc2ccc(S(=O)(=O)C(F)(F)F)cc2)n1` [Compound I-402], the IC50 was in the range of 100 to 1000 nM. On the same count and under the same terms, for `Cc1nc(CO)sc1-c1csc(NC(=O)C2CN(S(=O)(=O)C(F)(F)F)C2)n1` [Compound I-403] the value was 100 to 1000 nM; for `Cc1nc(C(=N)N)sc1-c1csc(NC(=O)Cc2ccc(S(=O)(=O)C(F)(F)F)cc2)n1` [Compound I-404], 100 to 1000 nM. The same measure, in the same setting: for `Cc1nc(CO)sc1-c1csc(NC(=O)[C@H]2C[C@@H](c3ccc(C(F)(F)F)cc3)C2)n1` [Compound I-405] the value was less than 100 nM; for `Cc1nc(CO)sc1-c1csc(NC(=O)Cn2cnc(C(F)(F)F)c2)n1` [Compound I-406], 1000 to 8000 nM; for `NC(=O)CCc1nc(CO)sc1-c1csc(NC(=O)Cc2ccc(S(=O)(=O)C(F)(F)F)cc2)n1` [Compound I-407], 100 to 1000 nM.

On to `Cc1nc(C)c(-c2csc(NC(=O)Cc3cccc(Br)c3)n2)s1` [Compound I-408], for which the IC50 was less than 100 nM.

`Cc1nc(C)c(-c2csc(NC(=O)Cc3cccc(N)c3)n2)s1` [Compound I-409]: the IC50 lay in the range of 100 to 1000 nM. On the same count and under the same terms, the figure for `Cc1nc(CO)sc1-c1csc(NC(=O)Cc2cnc(C(F)(F)F)cn2)n1` [Compound I-410] is less than 100 nM; for `Cc1nc(CC(N)=O)sc1-c1csc(NC(=O)Cc2ccc(S(=O)(=O)C(F)(F)F)cc2)n1` [Compound I-411] it is 100 to 1000 nM.

With `CN(C)Cc1nc(CO)sc1-c1csc(NC(=O)Cc2ccc(S(=O)(=O)C(F)(F)F)cc2)n1` [Compound I-412], the IC50 fell in the range of 1000 to 8000 nM. As to `Cc1nc(C)c(-c2csc(NC(=O)Cc3ccc(NC(=O)c4ccccc4)cc3)n2)s1` [Compound I-413], the IC50 fell in the range of 100 to 1000 nM. Turning to `CC(=O)Nc1cccc(CC(=O)Nc2nc(-c3sc(C)nc3C)cs2)c1` [Compound I-414], the IC50 lay in the range of 1000 to 8000 nM. The same measure, in the same setting: the figure for `Cc1nc(C)c(-c2csc(NC(=O)Cc3cccc(NC(=O)C(C)C)c3)n2)s1` [Compound I-415] is 100 to 1000 nM; for `Cc1nc(C)c(-c2csc(NC(=O)Cc3cccc(NC(=O)C4CCCCC4)c3)n2)s1` [Compound I-416] it is less than 100 nM; for `Cc1nc(C)c(-c2csc(NC(=O)Cc3cccc(NC(=O)C(F)(F)F)c3)n2)s1` [Compound I-417] it is less than 100 nM. With `Cc1nc(C)c(-c2csc(NC(=O)Cc3cccc(NS(=O)(=O)c4ccccc4)c3)n2)s1` [Compound I-418], the IC50 is less than 100 nM. The same measure, in the same setting: the figure for `Cc1nc(CO)oc1-c1csc(NC(=O)Cn2cc(C(F)(F)F)cn2)n1` [Compound I-419] is 1000 to 8000 nM; for `Cc1nc(C)c(-c2csc(NC(=O)Cn3cc(CNC(=O)OC(C)(C)C)nn3)n2)s1` [Compound I-421] it is 1000 to 8000 nM. The same measure, in the same setting: for `Cc1nc(C)c(-c2csc(NC(=O)Cn3cc(-c4ccc(S(C)(=O)=O)cc4)nn3)n2)s1` [Compound I-422] the value was 100 to 1000 nM; for `Cc1nc(C)c(-c2csc(NC(=O)Cn3cc(-c4ccc(Cl)cc4)nn3)n2)s1` [Compound I-423], less than 100 nM. On to `Cc1nc(C)c(-c2csc(NC(=O)Cn3cc(COc4ccccc4)nn3)n2)s1` [Compound I-424], for which the IC50 was less than 100 nM. Same read-out and setting: for `Cc1nc(C)c(-c2csc(NC(=O)Cn3cc(CNc4ccccc4)nn3)n2)s1` [Compound I-425] the value was 100 to 1000 nM; for `Cc1nc(C)c(-c2csc(NC(=O)Cn3cc(-c4ccccn4)nn3)n2)s1` [Compound I-426], 1000 to 8000 nM; for `Cc1nc(C)c(-c2csc(NC(=O)Cn3cc(-c4ccc(N(C)C)cc4)nn3)n2)s1` [Compound I-427], 100 to 1000 nM. Same read-out and setting: for `Cc1nc(C)c(-c2csc(NC(=O)Cn3cc(Cn4cccc4)nn3)n2)s1` [Compound I-428] the value was 100 to 1000 nM; for `Cc1nc(C)c(-c2csc(NC(=O)Cn3cc(CCCC#N)nn3)n2)s1` [Compound I-429], 1000 to 8000 nM. Regarding `Cc1nc(C)c(-c2csc(NC(=O)Cn3cc(C4CC4)nn3)n2)s1` [Compound I-430], the IC50 lay in the range of 100 to 1000 nM. On the same count and under the same terms, for `CCOc1cn(CC(=O)Nc2nc(-c3sc(C)nc3C)cs2)nn1` [Compound I-431] the value was 1000 to 8000 nM. On the same count and under the same terms, for `Cc1nc(C)c(-c2csc(NC(=O)Cc3cccc(N(C)C(=O)c4ccccc4)c3)n2)s1` [Compound I-432] the value was 100 to 1000 nM; for `Cc1nc(CO)sc1-c1csc(NC(=O)C2CN(S(=O)(=O)CCC(F)(F)F)C2)n1` [Compound I-433], 100 to 1000 nM.
